Assay results from US12194024B2, “Pharmaceutical composition of MDM2 inhibitor and use thereof for preventing and/or treating disease” (ASCENTAGE PHARMA (SUZHOU) CO., LTD., priority 2019, dated 2025).

Tests used:
[1] = system: human MOLM-13 (AML) xenograft tumor; assay: Systemic MOLM-13 AML mouse xenograft model; assay type: in vivo, NOD SCID mice
Text: The comparison among three or more groups uses one-way ANOVA. If the F value has a significant difference, multiple comparisons should be carried out after the ANOVA analysis. All data analysis uses SPSS 18.0. Prism (the sixth version) is used for graphing. Attune N×T flow cytometer (Thermo Fisher Scientific Inc.) is used for analyzing tumor infiltrating lymphocytes. Data acquisition and analysis use Analyst Software 1.6.3 work station (AB sciex, Ontario, Canada). For MOLM-13 systemic model, the death date of the last mouse is used for analyzing the median total survival and generating the Kaplan-Meier curve. Logarithmic rank test and Bonferroni multiple test are used for comparing the survival curves of different treatment groups.
For systemic AML model, six- to eight-week-old female NOD SCID mice are pretreated with cyclophosphamide (150 mg/kg, intraperitoneally) continuously for two days. Then the MOLM-13 systemic AML xenograft model is established by inoculating 1×10^7 cells into the caudal vein intravenously.
For systemic AML model, the six- to eight-week-old female NOD SCID mice are pretreated with cyclophosphamide (150 mg/kg, intraperitoneally) continuously for two days. Then the MOLM-13 systemic AML xenograft model is established by inoculating 1×10^7 cells into the caudal vein intravenously. Cells grow 3 days, then are randomly divided into groups for treatment of a single drug or drugs in combination using a carrier, compound 2 (50 mg/kg, is taken orally each day for 7 days), and Aza (1.5 mg/kg, intravenous injection each day for 7 days). In the treatment process and after the treatment is completed, the mice are monitored for the occurrence of hind leg paresis (HLP) or the abdominal swelling caused by disease progression, and a body weight loss >20%.
A systemic MOLM-13 mouse xenograft model is established, and the anti-leukemia effect of compound 2 following the administration regimen of 80 mg/kg dosage, orally (po), and once every two days (q2d) is evaluated in the model (corresponding to the number 57 regimen in table 7). The experiment has two groups, and 15 animals in each group, in one group, 5 animals are used for the analysis of the proportion of CD45+ AML cells, and the remaining 10 animals are used for recording the living condition of the mice. 18 days after the cell inoculation, according to the experimental regimen, 5 animals are selected randomly from each group, bone marrow and spleen are collected, the proportion of human CD45+ AML cells in bone marrow and spleen is analyzed using flow cytometry to evaluate the disease burden of animals.
Systemic tumor model is established by inoculating MOLM-13 tumor cells through caudal vein, the administration starts on the third day after the cell inoculation, and the day of the administration is defined as the first day. Compound 2 is administered following 30 mg/kg, q2d regimens for 21 days. Azacitidine is administered following 1.5 mg/kg, qd regimens for seven days (corresponding to the number 81 regimen in table 7). […]

[2] = system: human A375 cutaneous melanoma xenograft tumor; assay: Subcutaneous A375 cutaneous melanoma xenograft model; assay type: in vivo, BALB/c Nude mice
Text: The subcutaneous xenograft tumor model of human tumor immuno-deficient mice is established by the cell inoculation method (reference can be made to Gould S E et al., Translational value of mouse models in oncology drug development, Nature medicine, 2015 21, 431-439, and Souers A J et al., ABT-199, a potent and selective BCL-2 inhibitor, achieves antitumor activity while sparing platelets, Nature medicine, 2012 19.202-208): tumor cells at logarithmic phase are collected, then are resuspended in 1×PBS after being counted, the concentration of the cell suspension is adjusted to 2.5-5×10^7/mL. Tumor cells are subcutaneously inoculated to right-side back of the immuno-deficient mice using a 1 mL syringe (4th needle) at 5-10×10^6/0.2 mL/mouse (experimental animals are purchased from Beijing Vital River Laboratory Animal Technology Co., Ltd. SCXK (Beijing) 2016-0006). All the experimental operations of animals strictly abide by the usage and management standard of experimental animals of GenePharma Co., Ltd. and Suzhou Yasheng Pharmaceutical Co., Ltd. The calculations of related parameters make reference to “Technical guidelines for non-clinical research of cytotoxic anti-tumor drugs” of China CFDA.
The tumor diameter is measured twice using a vernier caliper each week. The computational formula of the tumor volume (TV) is: TV=a×b^2/2. In the computational formula, a and b represent the length and width of the tumor measurement respectively. The computational formula of the relative tumor volume (RTV) is: RTV=VtN1. In the computational formula, V1 is the tumor volume when being grouped and administered, and Vt is the tumor volume when being measured at a certain day after the administration.
The evaluation index of the anti-tumor activity is the relative tumor proliferation rate T/C (%), and the computational formulae respectively are: the relative tumor proliferation rate T/C (%)=(TRTV/CRTV)×100%, TRTV is the RTV of the treatment groups, and CRTV is the RTV of the vehicle control groups. The tumor remission rate (%) is derived by dividing the number of SD (Stable Disease), PR (Partial response) and CR (Complete response) appearing in the tumor bearing mice after treatment by the total number of mice in the group×100%. […]

[3] = 80 mg/kg, p.o., q2d × 3 w, versus vehicle
[4] = 80 mg/kg, po, q2d, 18 days after cell inoculation

With `CCN1[C@@H](C(=O)NC23CCC(C(=O)O)(CC2)CC3)[C@H](c2cccc(Cl)c2F)[C@]2(C(=O)Nc3cc(Cl)ccc32)C12CCCCC2` [Compound 2] the Median survival ([1]; 80 mg/kg, p.o., q2d × 3 w, vehicle 18.5 days) was 37.0 days, the “Prolonged days of survival” value [1, 3] was 18.5 days and the “prolongation of median survival” value [1, 3] was 100%. The “proportion of human CD45+ AML cells in bone marrow” value [1, 4] was “less than 0.1%”, the “proportion of human CD45+ AML cells in spleen” value [1, 4] was “less than 0.1%” and the “Median survival” value ([1]; Compound 2 30 mg/kg q2d 21 days, Azacitidine 1.5 mg/kg qd seven days, vehicle 16 days) was 24 days. For the same compound, the “Prolonged survival” value ([1]; Compound 2 30 mg/kg q2d 21 days, Azacitidine 1.5 mg/kg qd seven days, versus vehicle) was 8 days, the minimum effective dosage ([1]; compound 2 alone, human MOLM-13 systemic xenograft) was 20 mg/kg and the “T/C (%) @ D18” value ([2]; Compound 2 50 mg/kg PO QD × 7D, Trametinib 1 mg/kg, Dabrafenib 30 mg/kg PO QD × 21D) was 58.25%. For the same compound, the “RTV @ D18 (Mean ± SEM)” value ([2]; Compound 2 50 mg/kg PO QD × 7D, Trametinib 1 mg/kg, Dabrafenib 30 mg/kg PO QD × 21D, vehicle 17.36 ± 1.33) was 10.11 ± 1.83, the “DCR (%)” value ([2]; disease control rate, CR, PR or SD by mRECIST) was 0% and the “ORR (%)” value ([2]; objective response rate, CR or PR by mRECIST) was 0%.
